Test results from patent publication US20100292216A1, “Methods and Compositions for the Treatment of Psychiatric Conditions” (ADAMAS PHARMACEUTICALS, INC., priority 2004, published 2010).
Entries after “also recorded” stand apart in the source; their conditions may differ. Where two headings read alike, the source gives them in different places.

Key:
[1] = system: depression model (forced swim test (FST)); assay: Dose ranging study in depression model (forced swim test); type: in vivo
Source text: An isobolic experiment ensues where the drugs are combined in fractions of their EDXXs to add up to ED100 (i.e., ED50:ED50, ED25:ED75, etc.). The plot of the data is constructed. The experiment points that lie below the straight line between the ED50 points on the graph are indicative of synergy, points on the line are indicative of additive effects, and points above the line are indicative of inhibitory effects. The point of maximum deviation from the isobolic line is the optimal ratio. […] Similar protocols may be applied in a wide variety of validated animal models.

[2] = humans; cited from earlier work
[3] = IR administration; memantine 10 mg bid, duloxetine 60 mg qd; cited from earlier work
[4] = cited from earlier work; for Human PK T 1/2 / Tmax: parent drug

CC12CC3CC(C)(C1)CC(N)(C3)C2 [Memantine, 1-amino-3,5-dimethyladamantane]
ED50 [1]: approximately 15 μM
Dose Dependent Tox [2]: required, hallucination
Tmax [3]: 3 h

COc1ccc(C(CN(C)C)C2(O)CCCCC2)cc1 (stereo not shown) [EFFEXOR/Venlafaxine, venlafaxine]
Human PK T 1/2 (hrs) for ODV ([4]; humans, ODV): 11 h
Tmax (hrs) for ODV ([4]; humans, ODV): 3 h
Human PK T 1/2 ([4]; humans): 5 h
Tmax ([4]; humans): 2 h
Main Dose Dependent Adverse Event [2]: nausea, constipation,; also recorded: anorexia, vomiting,; also recorded: somnolence,

CNCCCN1c2ccccc2CCc2ccccc21 [NORPRAMIN/Desipramine, desipramine]
Human PK T 1/2 ([4]; humans): 22 h
Tmax ([4]; humans): 3 to 6 h
Main Dose Dependent Adverse Event [2]: Hypotension, urinary; also recorded: retention, QTC

O=C1CC2(CCCC2)CC(=O)N1CCCCN1CCN(c2ncccn2)CC1 [BUSPAR/Buspirone, buspirone]
Human PK T 1/2 ([4]; humans): 7 h
Tmax ([4]; humans): 1 h
Main Dose Dependent Adverse Event [2]: Drowsiness, dizziness

CNCC[C@H](Oc1cccc2ccccc12)c1cccs1 [CYMBALTA/Duloxetine, duloxetine]
Human PK T 1/2 ([4]; humans): 12 h
Tmax ([4]; humans): 6 h
Main Dose Dependent Adverse Event [2]: Dizziness
Tmax [3]: 6 h
T½ [3]: 12 h

CN(C)CCC[C@@]1(c2ccc(F)cc2)OCc2cc(C#N)ccc21 [LEXAPRO/Escitalopram, escitalopram]
Tmax ([4]; humans): 5 h
Main Dose Dependent Adverse Event [2]: Sexual dys

CC(NC(C)(C)C)C(=O)c1cccc(Cl)c1 (stereo not shown) [WELLBUTRIN/Bupropion, bupropion]
Human PK T 1/2 ([4]; humans): 14 h
Tmax ([4]; humans): 2 h
Main Dose Dependent Adverse Event [2]: Anorexia, constipation,; also recorded: seizures (Bold Warning)

Fc1ccc([C@@H]2CCNC[C@H]2COc2ccc3c(c2)OCO3)cc1 [PAXIL/Paroxetine, paroxetine]
T½ ([4]; head of release table, Example 3): T½ = 21 hrs
Human PK T 1/2 ([4]; humans): 21 h
Tmax ([4]; humans): 5 h
Main Dose Dependent Adverse Event [2]: Sexual dys
